Data reported in patent publication US8129371B2, “Thienopyrimidine and pyrazolopyrimidine compounds and their use as mTOR kinase and PI3 kinase inhibitors” (Wyeth LLC, priority 2007, dated 2012).

Legend:
[1] = molecular target: T1, Human mTOR (FLAG-TOR) (Homo sapiens, UniProt P42345); assay: Human mTOR kinase assay with purified enzyme, DELFIA format; assay type: biochemical
T1 construct: FLAG
Summary of the method: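 DELFIA readout: Eu-anti-P(T389)-S6K antibody (40 ng/mL, 1 h) on captured His6-S6K from the stopped reaction. Kinase step used purified FLAG-tagged human mTOR with test compound in HEPES (pH 7.4)/MnCl2/DTT buffer, 2 h at room temperature (linear 1–6 h), terminated by EDTA/EGTA.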

[2] = molecular target: T2, PI3K (Homo sapiens, UniProt P42336); assay: Fluorescence polarization assay for PI3K; assay type: biochemical; conditions: PI3 Kinase α; read-out: PI3 Kinase α IC50
T2 construct: PI3 Kinase α IC50; other: PI3 Kinase α; other: PI3 Kinase α isoform, fluorescence polarization
T2 sequence (P42336 whole entry, canonical isoform): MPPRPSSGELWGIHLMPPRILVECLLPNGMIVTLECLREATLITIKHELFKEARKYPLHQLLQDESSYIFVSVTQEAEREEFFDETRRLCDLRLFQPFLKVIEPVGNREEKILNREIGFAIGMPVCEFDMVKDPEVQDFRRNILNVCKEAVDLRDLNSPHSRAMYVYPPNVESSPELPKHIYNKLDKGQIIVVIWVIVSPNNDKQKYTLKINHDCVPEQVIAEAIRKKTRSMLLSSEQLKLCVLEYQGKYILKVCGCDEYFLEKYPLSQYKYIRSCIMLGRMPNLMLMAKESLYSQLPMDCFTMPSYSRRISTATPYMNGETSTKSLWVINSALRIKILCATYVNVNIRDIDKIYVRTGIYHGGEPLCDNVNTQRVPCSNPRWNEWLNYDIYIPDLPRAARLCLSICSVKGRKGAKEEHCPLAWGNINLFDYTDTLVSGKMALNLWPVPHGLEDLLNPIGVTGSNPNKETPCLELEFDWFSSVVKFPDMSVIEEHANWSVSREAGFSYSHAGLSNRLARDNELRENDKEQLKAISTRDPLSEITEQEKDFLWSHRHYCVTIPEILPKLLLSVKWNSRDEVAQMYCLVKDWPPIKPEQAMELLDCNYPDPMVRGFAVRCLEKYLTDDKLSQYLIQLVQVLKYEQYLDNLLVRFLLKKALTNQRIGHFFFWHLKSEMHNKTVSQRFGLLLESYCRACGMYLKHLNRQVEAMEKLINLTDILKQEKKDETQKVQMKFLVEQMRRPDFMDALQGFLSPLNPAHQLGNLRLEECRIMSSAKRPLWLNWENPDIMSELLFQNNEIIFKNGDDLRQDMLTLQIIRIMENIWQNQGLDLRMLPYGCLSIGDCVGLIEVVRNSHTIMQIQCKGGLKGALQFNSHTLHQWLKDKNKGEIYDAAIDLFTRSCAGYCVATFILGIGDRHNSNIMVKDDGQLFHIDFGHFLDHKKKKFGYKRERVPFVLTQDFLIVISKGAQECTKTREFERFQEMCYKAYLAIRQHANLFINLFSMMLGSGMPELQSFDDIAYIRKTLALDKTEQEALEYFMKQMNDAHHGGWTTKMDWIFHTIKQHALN
Summary of the method: (§1)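 Fluorescence-polarization competition readout: after 30–60 min of PIP2/ATP turnover in 1% DMSO, a stop mix with GST-GRP (70 nM) and red probe (10 nM) was added.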

[3] = molecular target: T3, PI3K (Homo sapiens, UniProt P48736); assay: Fluorescence polarization assay for PI3K; assay type: biochemical; conditions: PI3 Kinase γ; read-out: PI3 Kinase γ IC50
T3 construct: PI3 Kinase γ IC50; other: PI3 Kinase γ; other: PI3 Kinase γ isoform, fluorescence polarization
T3 sequence (P48736 whole entry, canonical isoform): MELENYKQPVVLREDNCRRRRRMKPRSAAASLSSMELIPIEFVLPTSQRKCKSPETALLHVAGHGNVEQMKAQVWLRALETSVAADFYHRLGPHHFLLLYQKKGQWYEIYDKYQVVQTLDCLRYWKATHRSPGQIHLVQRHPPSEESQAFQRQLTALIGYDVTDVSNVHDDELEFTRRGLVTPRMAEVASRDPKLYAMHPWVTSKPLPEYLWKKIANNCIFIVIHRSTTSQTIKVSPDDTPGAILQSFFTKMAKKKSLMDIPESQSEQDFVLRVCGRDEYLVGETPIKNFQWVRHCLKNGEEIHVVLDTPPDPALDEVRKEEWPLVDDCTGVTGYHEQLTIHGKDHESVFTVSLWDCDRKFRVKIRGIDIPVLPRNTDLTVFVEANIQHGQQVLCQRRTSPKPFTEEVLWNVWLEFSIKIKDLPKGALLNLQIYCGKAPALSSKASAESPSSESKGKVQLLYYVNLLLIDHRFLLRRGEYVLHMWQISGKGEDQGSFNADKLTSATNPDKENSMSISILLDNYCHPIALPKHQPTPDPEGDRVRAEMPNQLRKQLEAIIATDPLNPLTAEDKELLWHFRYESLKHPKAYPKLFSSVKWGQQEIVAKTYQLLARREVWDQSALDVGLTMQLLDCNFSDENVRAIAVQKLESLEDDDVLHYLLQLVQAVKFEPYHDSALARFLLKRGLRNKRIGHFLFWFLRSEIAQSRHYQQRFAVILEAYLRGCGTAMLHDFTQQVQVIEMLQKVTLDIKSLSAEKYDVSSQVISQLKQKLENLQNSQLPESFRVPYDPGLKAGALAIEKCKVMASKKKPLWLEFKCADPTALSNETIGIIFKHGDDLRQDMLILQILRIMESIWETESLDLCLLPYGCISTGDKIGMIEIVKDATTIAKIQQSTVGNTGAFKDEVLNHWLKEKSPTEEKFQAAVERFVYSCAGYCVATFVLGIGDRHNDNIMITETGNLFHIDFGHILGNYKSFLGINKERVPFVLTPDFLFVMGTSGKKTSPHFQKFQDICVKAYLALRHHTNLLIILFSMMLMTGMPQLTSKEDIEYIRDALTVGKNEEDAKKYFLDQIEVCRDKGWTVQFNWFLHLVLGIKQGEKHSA
Summary of the method: as §1

[4] = system: prostate line LNCap; assay: In vitro cell culture growth assay (MTS), LNCap; assay type: cell-based; conditions: Homo sapiens, LNCaP, 72 h, LNCap cells, three days after drug treatment
Summary of the method: (§2)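 Inhibitors were added one day after plating, and viable cells were measured 3 days later by MTS conversion (absorbance 490 nm).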

[5] = system: breast line MDA468; assay: In vitro cell culture growth assay (MTS), MDA468; assay type: cell-based; conditions: Homo sapiens, 72 h, MDA468 cells, three days after drug treatment
Summary of the method: as §2

Structure (SMILES) | IC50 [1] [nM] | IC50 [2] [nM] | IC50 [3] [nM] | IC50 [4] [nM] | IC50 [5] [nM]
N#CCCn1ncc2c(N3CC4CCC(C3)O4)nc(-c3ccc(NC(=O)Nc4cccnc4)cc3)nc21 [Example 216, 1-{4-[1-(2-cyanoethyl)-4-(8-oxa-3-azabicyclo[3.2.1]oct-3-yl)-1H-pyrazolo[3,4-d]pyrimidin-6-yl]phenyl}-3-pyridin-3-ylurea] | 0.255 | 124 | 3320 | 4 | 55
CN1CCN(c2ccc(NC(=O)Nc3ccc(-c4nc(N5CC6CCC(C5)O6)c5cnn(CCC#N)c5n4)cc3)cc2)CC1 [Example 220, 1-{4-[1-(2-cyanoethyl)-4-(8-oxa-3-azabicyclo[3.2.1]oct-3-yl)-1H-pyrazolo[3,4-d]pyrimidin-6-yl]phenyl}-3-[4-(4-methylpiperazin-1-yl)phenyl]urea] | 0.48 | 74 | 1680 | 4 | 10
CN1CCN(c2ccc(NC(=O)Nc3ccc(-c4nc(N5CC6CCC(C5)O6)c5cnn(CCC#N)c5n4)cc3)cn2)CC1 [Example 222, 1-{4-[1-(2-cyanoethyl)-4-(8-oxa-3-azabicyclo[3.2.1]oct-3-yl)-1H-pyrazolo[3,4-d]pyrimidin-6-yl]phenyl}-3-[6-(4-methylpiperazin-1-yl)pyridin-3-yl]urea] | 0.405 | 143 | 2610 | 1 | 8
N#CCCn1ncc2c(N3CC4CCC(C3)O4)nc(-c3ccc(NC(=O)Nc4ccc(N5CCOCC5)nc4)cc3)nc21 [Example 223, 1-{4-[1-(2-cyanoethyl)-4-(8-oxa-3-azabicyclo[3.2.1]oct-3-yl)-1H-pyrazolo[3,4-d]pyrimidin-6-yl]phenyl}-3-(6-morpholin-4-ylpyridin-3-yl)urea] | 0.265 | 1660 | > 10000 | 10 | 21
CN(C)CCOc1ccc(NC(=O)Nc2ccc(-c3nc(N4CC5CCC(C4)O5)c4cnn(CCC#N)c4n3)cc2)cc1 [Example 224, 1-{4-[1-(2-cyanoethyl)-4-(8-oxa-3-azabicyclo[3.2.1]oct-3-yl)-1H-pyrazolo[3,4-d]pyrimidin-6-yl]phenyl}-3-{4-[2-(dimethylamino)ethoxy]phenyl}urea] | 0.745 | 155 | 2600 | 3 | 12
CCn1ncc2c(N3CC4CCC(C3)O4)nc(-c3ccc(NC(=O)NCCOCCN)cc3)nc21 [Example 225, 1-[2-(2-aminoethoxy)ethyl]-3-{4-[1-ethyl-4-(8-oxa-3-azabicyclo[3.2.1]oct-3-yl)-1H-pyrazolo[3,4-d]pyrimidin-6-yl]phenyl}urea] | 26.5 | 1390 | > 10000 | 2400 | 4000
CCn1ncc2c(N3CC4CCC(C3)O4)nc(-c3ccc(NC(=O)NCC4CCN(C)CC4)cc3)nc21 [Example 226, 1-{4-[1-ethyl-4-(8-oxa-3-azabicyclo[3.2.1]oct-3-yl)-1H-pyrazolo[3,4-d]pyrimidin-6-yl]phenyl}-3-[(1-methylpiperidin-4-yl)methyl]urea] | 230 | 4150 | > 10000 | 700 | 1300
CCn1ncc2c(N3CC4CCC(C3)O4)nc(-c3ccc(NC(=O)NC4CCCCC4)cc3)nc21 [Example 227, 1-cyclohexyl-3-{4-[1-ethyl-4-(8-oxa-3-azabicyclo[3.2.1]oct-3-yl)-1H-pyrazolo[3,4-d]pyrimidin-6-yl]phenyl}urea] | 15 | 5940 | > 10000 | 1200 | 3200
CCn1ncc2c(N3CC4CCC(C3)O4)nc(-c3ccc(NC(=O)NC4CCN(C)CC4)cc3)nc21 [Example 228, 1-{4-[1-ethyl-4-(8-oxa-3-azabicyclo[3.2.1]oct-3-yl)-1H-pyrazolo[3,4-d]pyrimidin-6-yl]phenyl}-3-(1-methylpiperidin-4-yl)urea] | 31.5 | 4500 | > 10000 | 490 | 900
CN(C)c1ccc(NC(=O)Nc2ccc(-c3nc(N4CC5CCC(C4)O5)c4cnn(C)c4n3)cc2)cc1 [Example 233, 1-[4-(dimethylamino)phenyl]-3-{4-[1-methyl-4-(8-oxa-3-azabicyclo[3.2.1]oct-3-yl)-1H-pyrazolo[3,4-d]pyrimidin-6-yl]phenyl}urea] | 0.865 | 604 | > 10000 | 40 | 140

These reach a lower IC50 [1]. Values come first.

IC50 [1] [nM] | IC50 [2] [nM] | IC50 [3] [nM] | IC50 [4] [nM] | Structure (SMILES) | IC50 [5] [nM]
0.17 | 112 | 348 | < 1 | N#CCCn1ncc2c(N3CC4CCC(C3)O4)nc(-c3ccc(NC(=O)Nc4ccncc4)cc3)nc21 [Example 217, 1-{4-[1-(2-cyanoethyl)-4-(8-oxa-3-azabicyclo[3.2.1]oct-3-yl)-1H-pyrazolo[3,4-d]pyrimidin-6-yl]phenyl}-3-pyridin-4-ylurea] | 1
0.122 | 40 | 2200 | < 1 | N#CCCn1ncc2c(N3CC4CCC(C3)O4)nc(-c3ccc(NC(=O)Nc4ccc(CO)cc4)cc3)nc21 [Example 218, 1-{4-[1-(2-cyanoethyl)-4-(8-oxa-3-azabicyclo[3.2.1]oct-3-yl)-1H-pyrazolo[3,4-d]pyrimidin-6-yl]phenyl}-3-[4-(hydroxymethyl)phenyl]urea] | < 1
0.082 | 44 | 1380 | < 1 | N#CCCn1ncc2c(N3CC4CCC(C3)O4)nc(-c3ccc(NC(=O)Nc4ccc(CCO)cc4)cc3)nc21 [Example 219, 1-{4-[1-(2-cyanoethyl)-4-(8-oxa-3-azabicyclo[3.2.1]oct-3-yl)-1H-pyrazolo[3,4-d]pyrimidin-6-yl]phenyl}-3-[4-(2-hydroxyethyl)phenyl]urea] | < 1
0.235 | 444 | 4790 | < 1 | N#CCCn1ncc2c(N3CC4CCC(C3)O4)nc(-c3ccc(NC(=O)Nc4ccc(N5CCOCC5)cc4)cc3)nc21 [Example 221, 1-{4-[1-(2-cyanoethyl)-4-(8-oxa-3-azabicyclo[3.2.1]oct-3-yl)-1H-pyrazolo[3,4-d]pyrimidin-6-yl]phenyl}-3-(4-morpholin-4-ylphenyl)urea] | 3
0.13 | 47 | 468 | < 1 | Cn1ncc2c(N3CC4CCC(C3)O4)nc(-c3ccc(NC(=O)Nc4ccc(CO)cc4)cc3)nc21 [Example 231, 1-[4-(hydroxymethyl)phenyl]-3-{4-[1-methyl-4-(8-oxa-3-azabicyclo[3.2.1]oct-3-yl)-1H-pyrazolo[3,4-d]pyrimidin-6-yl]phenyl}urea] | < 1
0.105 | 60 | 524 | < 1 | Cn1ncc2c(N3CC4CCC(C3)O4)nc(-c3ccc(NC(=O)Nc4ccc(CCO)cc4)cc3)nc21 [Example 232, 1-[4-(2-hydroxyethyl)phenyl]-3-{4-[1-methyl-4-(8-oxa-3-azabicyclo[3.2.1]oct-3-yl)-1H-pyrazolo[3,4-d]pyrimidin-6-yl]phenyl}urea] | 2
